Laboratory results published in ChEMBL document CHEMBL4507318, “Data for DCP probe BAY-985” (2021).

What was measured:
[1] = tested on: Mast/stem cell growth factor receptor Kit (Homo sapiens), P10721 [A829P]
[2] = biological target: Alpha-1D adrenergic receptor (Homo sapiens) (UniProt P25100); conditions: Compound concentration 10.0 uM
[3] = biological target: Protein-tyrosine kinase 6 (Homo sapiens) (UniProt Q13882)
[4] = biological target: Calcium/calmodulin-dependent protein kinase type 1D (Homo sapiens) (UniProt Q8IU85)
[5] = biological target: MAP/microtubule affinity-regulating kinase 4 (Homo sapiens) (UniProt Q96L34)
[6] = biological target: Serine/threonine-protein kinase OSR1 (Homo sapiens) (UniProt O95747)
Sequence of Serine/threonine-protein kinase OSR1 (Homo sapiens) (O95747 2-527 limits assumed): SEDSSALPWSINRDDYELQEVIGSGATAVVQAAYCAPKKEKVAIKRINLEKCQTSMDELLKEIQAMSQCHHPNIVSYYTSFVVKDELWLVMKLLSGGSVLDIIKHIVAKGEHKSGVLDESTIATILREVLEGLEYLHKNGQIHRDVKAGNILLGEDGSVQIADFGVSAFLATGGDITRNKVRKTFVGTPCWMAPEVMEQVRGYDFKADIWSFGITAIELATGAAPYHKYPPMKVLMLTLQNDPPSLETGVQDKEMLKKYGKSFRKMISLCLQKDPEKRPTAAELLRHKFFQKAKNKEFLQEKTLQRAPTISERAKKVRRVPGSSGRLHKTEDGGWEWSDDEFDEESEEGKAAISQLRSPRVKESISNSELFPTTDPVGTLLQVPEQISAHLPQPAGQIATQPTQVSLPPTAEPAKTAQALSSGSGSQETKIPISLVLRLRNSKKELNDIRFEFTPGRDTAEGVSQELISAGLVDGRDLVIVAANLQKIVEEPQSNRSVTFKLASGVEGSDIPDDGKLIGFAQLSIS

[7] = biological target: Serine/threonine-protein kinase pim-1 (Homo sapiens) (UniProt P11309)
[8] = biological target: Death-associated protein kinase 1 (Homo sapiens) (UniProt P53355)
Sequence of Death-associated protein kinase 1 (Homo sapiens) (P53355 whole entry, looked up): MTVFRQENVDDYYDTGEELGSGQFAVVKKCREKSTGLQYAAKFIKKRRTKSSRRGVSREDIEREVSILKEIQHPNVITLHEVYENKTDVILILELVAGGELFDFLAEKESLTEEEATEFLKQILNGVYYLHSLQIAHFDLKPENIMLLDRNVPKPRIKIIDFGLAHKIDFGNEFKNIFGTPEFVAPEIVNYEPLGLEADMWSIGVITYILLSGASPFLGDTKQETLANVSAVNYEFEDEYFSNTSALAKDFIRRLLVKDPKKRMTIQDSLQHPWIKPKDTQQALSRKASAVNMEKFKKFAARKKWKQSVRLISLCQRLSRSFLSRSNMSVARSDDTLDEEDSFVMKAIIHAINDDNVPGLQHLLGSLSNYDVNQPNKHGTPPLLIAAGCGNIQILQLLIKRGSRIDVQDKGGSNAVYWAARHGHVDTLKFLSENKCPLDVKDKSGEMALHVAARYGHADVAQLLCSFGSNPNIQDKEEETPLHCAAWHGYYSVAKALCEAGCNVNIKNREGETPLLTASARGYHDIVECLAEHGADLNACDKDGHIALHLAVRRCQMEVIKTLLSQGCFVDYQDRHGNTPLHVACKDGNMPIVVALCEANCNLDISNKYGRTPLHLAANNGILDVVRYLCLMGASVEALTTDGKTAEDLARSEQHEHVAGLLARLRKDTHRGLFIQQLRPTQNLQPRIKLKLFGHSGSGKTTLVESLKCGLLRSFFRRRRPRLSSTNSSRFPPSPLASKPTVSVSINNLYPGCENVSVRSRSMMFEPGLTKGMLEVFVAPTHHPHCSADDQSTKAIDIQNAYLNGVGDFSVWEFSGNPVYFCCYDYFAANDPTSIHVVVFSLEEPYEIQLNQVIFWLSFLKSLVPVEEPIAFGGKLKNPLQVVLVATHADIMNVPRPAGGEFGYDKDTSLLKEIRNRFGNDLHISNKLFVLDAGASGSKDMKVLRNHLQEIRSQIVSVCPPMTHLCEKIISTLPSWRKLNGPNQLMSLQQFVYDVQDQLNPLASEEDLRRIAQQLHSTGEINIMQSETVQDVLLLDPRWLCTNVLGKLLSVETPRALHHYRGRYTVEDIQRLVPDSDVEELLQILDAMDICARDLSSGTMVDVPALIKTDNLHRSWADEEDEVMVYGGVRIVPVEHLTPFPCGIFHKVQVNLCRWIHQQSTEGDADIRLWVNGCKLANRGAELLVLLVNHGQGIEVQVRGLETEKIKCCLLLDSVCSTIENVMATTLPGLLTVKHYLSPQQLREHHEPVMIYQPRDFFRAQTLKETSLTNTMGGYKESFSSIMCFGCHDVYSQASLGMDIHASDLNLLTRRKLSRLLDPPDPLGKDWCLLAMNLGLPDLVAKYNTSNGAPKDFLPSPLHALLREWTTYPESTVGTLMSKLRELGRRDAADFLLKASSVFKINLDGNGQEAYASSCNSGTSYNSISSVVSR

[9] = biological target: Serine/threonine-protein kinase 38 (Homo sapiens) (UniProt Q15208)
[10] = biological target: Cyclin-dependent kinase-like 1 (Homo sapiens) (UniProt Q00532)
[11] = biological target: Mitogen-activated protein kinase 15 (Homo sapiens) (UniProt Q8TD08)
[12] = tested on: Tyrosine-protein kinase ABL1 (Homo sapiens), P00519 [H396P]
[13] = biological target: Death-associated protein kinase 3 (Homo sapiens) (UniProt O43293)
[14] = biological target: Ephrin type-A receptor 3 (Homo sapiens) (UniProt P29320)
[15] = biological target: Non-receptor tyrosine-protein kinase TNK1 (Homo sapiens) (UniProt Q13470)
[16] = biological target: Wee1-like protein kinase 2 (Homo sapiens) (UniProt P0C1S8)
Sequence of Wee1-like protein kinase 2 (Homo sapiens) (P0C1S8 whole entry, looked up): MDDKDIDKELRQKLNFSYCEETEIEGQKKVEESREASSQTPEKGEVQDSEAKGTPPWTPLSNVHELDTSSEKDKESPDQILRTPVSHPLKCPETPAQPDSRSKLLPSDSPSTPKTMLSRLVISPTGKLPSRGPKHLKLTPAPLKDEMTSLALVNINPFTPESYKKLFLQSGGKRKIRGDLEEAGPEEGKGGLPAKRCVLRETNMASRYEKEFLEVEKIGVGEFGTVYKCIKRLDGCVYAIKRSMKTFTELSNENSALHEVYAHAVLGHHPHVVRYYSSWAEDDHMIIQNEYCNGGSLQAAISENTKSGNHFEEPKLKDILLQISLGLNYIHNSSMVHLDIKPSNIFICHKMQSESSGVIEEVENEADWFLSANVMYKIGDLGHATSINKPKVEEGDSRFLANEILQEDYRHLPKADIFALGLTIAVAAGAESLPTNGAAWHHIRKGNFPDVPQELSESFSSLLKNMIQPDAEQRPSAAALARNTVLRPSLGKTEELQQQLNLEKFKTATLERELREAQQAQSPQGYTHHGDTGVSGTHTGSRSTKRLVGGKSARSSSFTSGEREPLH

[17] = tested on: Receptor-type tyrosine-protein kinase FLT3 (Homo sapiens), P36888 [K663Q]
[18] = biological target: Non-receptor tyrosine-protein kinase TYK2 (Homo sapiens) (UniProt P29597)
[19] = biological target: Dual serine/threonine and tyrosine protein kinase (Homo sapiens) (UniProt Q6XUX3)
Sequence of Dual serine/threonine and tyrosine protein kinase (Homo sapiens) (Q6XUX3 whole entry): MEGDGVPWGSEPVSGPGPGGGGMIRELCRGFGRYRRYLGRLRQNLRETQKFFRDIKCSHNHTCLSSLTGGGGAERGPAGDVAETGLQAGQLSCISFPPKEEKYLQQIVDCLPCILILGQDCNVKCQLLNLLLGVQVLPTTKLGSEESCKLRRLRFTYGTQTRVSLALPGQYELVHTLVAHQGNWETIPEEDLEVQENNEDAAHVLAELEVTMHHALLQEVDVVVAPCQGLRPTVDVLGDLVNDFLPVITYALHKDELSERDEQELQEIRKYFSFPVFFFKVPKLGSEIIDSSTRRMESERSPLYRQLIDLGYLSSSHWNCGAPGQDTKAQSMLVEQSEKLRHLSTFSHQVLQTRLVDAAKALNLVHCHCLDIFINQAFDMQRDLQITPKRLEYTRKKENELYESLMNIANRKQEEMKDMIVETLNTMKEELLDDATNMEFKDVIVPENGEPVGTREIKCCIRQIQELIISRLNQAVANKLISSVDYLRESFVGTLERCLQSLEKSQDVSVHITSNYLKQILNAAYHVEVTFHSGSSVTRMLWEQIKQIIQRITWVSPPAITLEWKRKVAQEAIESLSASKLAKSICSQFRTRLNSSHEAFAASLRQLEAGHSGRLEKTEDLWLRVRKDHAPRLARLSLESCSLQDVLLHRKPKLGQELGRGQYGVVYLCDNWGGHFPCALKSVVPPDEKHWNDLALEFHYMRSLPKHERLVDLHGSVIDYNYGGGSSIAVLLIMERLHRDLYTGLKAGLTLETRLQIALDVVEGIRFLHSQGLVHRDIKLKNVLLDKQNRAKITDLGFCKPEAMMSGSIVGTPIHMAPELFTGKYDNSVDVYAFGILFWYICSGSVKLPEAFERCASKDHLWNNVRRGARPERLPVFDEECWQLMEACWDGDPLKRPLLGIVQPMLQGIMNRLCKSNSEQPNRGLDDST

[20] = biological target: Ribosomal protein S6 kinase alpha-3 (Homo sapiens) (UniProt P51812)
[21] = biological target: Calcium/calmodulin-dependent protein kinase type II subunit gamma (Homo sapiens) (UniProt Q13555)
[22] = biological target: Cyclin-dependent kinase 15 (Homo sapiens) (UniProt Q96Q40)
[23] = biological target: Cyclin-dependent kinase 5 (Homo sapiens) (UniProt Q00535)
Sequence of Cyclin-dependent kinase 5 (Homo sapiens) (Q00535 whole entry, looked up): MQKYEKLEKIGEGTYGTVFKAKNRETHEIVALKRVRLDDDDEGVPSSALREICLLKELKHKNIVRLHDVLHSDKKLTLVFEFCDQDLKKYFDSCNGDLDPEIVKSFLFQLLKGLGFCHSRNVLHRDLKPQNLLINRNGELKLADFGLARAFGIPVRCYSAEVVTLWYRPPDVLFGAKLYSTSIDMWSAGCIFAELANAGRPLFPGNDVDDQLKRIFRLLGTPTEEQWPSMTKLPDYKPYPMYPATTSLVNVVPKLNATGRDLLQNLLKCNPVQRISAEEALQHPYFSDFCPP

[24] = biological target: Serine/threonine-protein kinase 26 (Homo sapiens) (UniProt Q9P289)
[25] = biological target: Casein kinase I isoform gamma-2 (Homo sapiens) (UniProt P78368)
Sequence of Casein kinase I isoform gamma-2 (Homo sapiens) (P78368 whole entry, looked up, canonical isoform): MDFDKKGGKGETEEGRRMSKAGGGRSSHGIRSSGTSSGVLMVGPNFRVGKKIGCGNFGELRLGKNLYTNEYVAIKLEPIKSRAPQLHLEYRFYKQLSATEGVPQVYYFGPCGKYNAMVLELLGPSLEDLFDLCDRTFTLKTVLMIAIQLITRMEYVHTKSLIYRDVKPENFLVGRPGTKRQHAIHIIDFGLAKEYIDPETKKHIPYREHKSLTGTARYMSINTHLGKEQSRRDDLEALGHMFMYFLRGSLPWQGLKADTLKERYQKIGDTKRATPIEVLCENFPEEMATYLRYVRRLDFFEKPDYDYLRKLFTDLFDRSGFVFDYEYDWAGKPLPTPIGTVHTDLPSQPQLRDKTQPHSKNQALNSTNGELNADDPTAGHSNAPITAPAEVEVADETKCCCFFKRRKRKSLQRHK

[26] = biological target: NUAK family SNF1-like kinase 2 (Homo sapiens) (UniProt Q9H093)
[27] = biological target: Serine/threonine-protein kinase 32C (Homo sapiens) (UniProt Q86UX6)
[28] = biological target: Alpha-2C adrenergic receptor (Homo sapiens) (UniProt P18825); conditions: Compound concentration 10.0 uM
[29] = biological target: Interleukin-1 receptor-associated kinase 4 (Homo sapiens) (UniProt Q9NWZ3)
[30] = biological target: 5-hydroxytryptamine receptor 1B (Homo sapiens) (UniProt P28222); conditions: Compound concentration 10.0 uM
[31] = biological target: Focal adhesion kinase 1 (Homo sapiens) (UniProt Q05397)
[32] = biological target: Serine/threonine-protein kinase 38-like (Homo sapiens) (UniProt Q9Y2H1)
[33] = biological target: Protein kinase C theta type (Homo sapiens) (UniProt Q04759)
[34] = biological target: Ribosomal protein S6 kinase alpha-1 (Homo sapiens) (UniProt Q15418)
Sequence of Ribosomal protein S6 kinase alpha-1 (Homo sapiens) (Q15418 whole entry, canonical isoform): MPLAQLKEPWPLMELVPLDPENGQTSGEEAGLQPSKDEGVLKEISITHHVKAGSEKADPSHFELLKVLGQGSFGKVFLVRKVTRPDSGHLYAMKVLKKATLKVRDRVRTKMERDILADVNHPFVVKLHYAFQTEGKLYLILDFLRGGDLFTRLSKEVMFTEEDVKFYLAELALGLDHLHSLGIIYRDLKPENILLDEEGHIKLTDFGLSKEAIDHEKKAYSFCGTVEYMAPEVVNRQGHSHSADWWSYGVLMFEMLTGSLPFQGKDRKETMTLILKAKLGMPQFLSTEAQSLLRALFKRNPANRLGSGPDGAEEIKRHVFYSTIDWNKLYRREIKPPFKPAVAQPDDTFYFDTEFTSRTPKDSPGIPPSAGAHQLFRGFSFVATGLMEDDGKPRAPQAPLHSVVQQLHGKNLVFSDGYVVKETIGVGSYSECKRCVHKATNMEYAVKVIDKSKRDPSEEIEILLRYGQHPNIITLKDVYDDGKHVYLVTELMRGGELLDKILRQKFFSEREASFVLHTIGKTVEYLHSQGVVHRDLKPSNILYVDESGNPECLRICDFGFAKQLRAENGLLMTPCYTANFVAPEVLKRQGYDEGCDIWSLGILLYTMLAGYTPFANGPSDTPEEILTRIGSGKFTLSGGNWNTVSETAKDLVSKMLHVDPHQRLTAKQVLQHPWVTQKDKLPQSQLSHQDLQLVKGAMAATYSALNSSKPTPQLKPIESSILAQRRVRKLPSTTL

[35] = tested on: Phosphatidylinositol 4,5-bisphosphate 3-kinase catalytic subunit alpha isoform (Homo sapiens), P42336 [Q546K]
[36] = biological target: Serine/threonine-protein kinase DCLK3 (Homo sapiens) (UniProt Q9C098)
[37] = biological target: Hepatocyte growth factor receptor (Homo sapiens) (UniProt P08581)
[38] = biological target: Atypical kinase COQ8B, mitochondrial (Homo sapiens) (UniProt Q96D53)
[39] = biological target: Macrophage colony-stimulating factor 1 receptor (Homo sapiens) (UniProt P07333)
[40] = biological target: Cyclin-dependent kinase-like 3 (Homo sapiens) (UniProt Q8IVW4)
[41] = biological target: Receptor tyrosine-protein kinase erbB-4 (Homo sapiens) (UniProt Q15303)
[42] = biological target: Mitotic checkpoint serine/threonine-protein kinase BUB1 (Homo sapiens) (UniProt O43683)
[43] = biological target: Serine/threonine-protein kinase 24 (Homo sapiens) (UniProt Q9Y6E0)
[44] = biological target: Serine/threonine-protein kinase pim-2 (Homo sapiens) (UniProt Q9P1W9)
[45] = biological target: Phosphatidylinositol 3-kinase C2 domain-containing subunit gamma (Homo sapiens) (UniProt O75747)
[46] = Compound concentration 100.0 nM
[47] = Compound concentration 1000.0 nM

C[C@H](c1ccnc(Nc2nc3ccc(-c4cc(N(C)C)ncn4)cc3[nH]2)c1)N1CCN(C(=O)CC(F)(F)F)CC1 [BAY-985]
residual activity [1, 46]: 83%
inhibition [2]: 20.2%
residual activity [3, 46]: 85%
residual activity [4, 46]: 95%
residual activity [5, 46]: 100%
residual activity [6, 46]: 100%
residual activity [7, 46]: 79%
residual activity [8, 46]: 93%
residual activity [9, 46]: 100%
residual activity [10, 46]: 100%
residual activity [11, 46]: 100%
residual activity [12, 46]: 79%
residual activity [13, 46]: 90%
residual activity [14, 46]: 100%
residual activity [15, 46]: 100%
residual activity [16, 46]: 98%
residual activity [17, 46]: 60%
residual activity [18, 46]: 100%
residual activity [19, 46]: 100%
residual activity [20, 46]: 100%
residual activity [21, 46]: 77%
residual activity [22, 46]: 100%
residual activity [23, 46]: 86%
residual activity [24, 46]: 100%
residual activity [25, 46]: 96%
residual activity [26, 46]: 95%
residual activity [27, 46]: 100%
inhibition [28]: 9.82%
residual activity [29, 46]: 100%
inhibition [30]: 11.5%
residual activity [31, 46]: 100%
residual activity [32, 46]: 65%
residual activity [33, 46]: 100%
residual activity [34, 46]: 100%
residual activity [35, 46]: 45%
residual activity [36, 46]: 100%
residual activity [37, 46]: 100%
residual activity [38, 46]: 79%
residual activity [39, 46]: 90%
residual activity [40, 46]: 86%
residual activity [41, 46]: 96%
residual activity [42, 46]: 95%
residual activity [43, 46]: 64%
residual activity [44, 46]: 100%
residual activity [45, 46]: 94%

CN(C)c1ncnc(-c2ccc3nc(Nc4cc(CN5CCN(C(=O)CC(F)(F)F)CC5)ccn4)[nH]c3c2)c1Cl [BAY-440]
residual activity [1, 47]: 53%
inhibition [2]: 20.8%
residual activity [3, 47]: 86%
residual activity [4, 47]: 100%
residual activity [5, 47]: 100%
residual activity [6, 47]: 94%
residual activity [7, 47]: 100%
residual activity [8, 47]: 100%
residual activity [9, 47]: 80%
residual activity [10, 47]: 96%
residual activity [11, 47]: 73%
residual activity [12, 47]: 4.2%
residual activity [13, 47]: 99%
residual activity [14, 47]: 63%
residual activity [15, 47]: 96%
residual activity [16, 47]: 100%
residual activity [17, 47]: 81%
residual activity [18, 47]: 77%
residual activity [19, 47]: 95%
residual activity [20, 47]: 81%
residual activity [21, 47]: 100%
residual activity [22, 47]: 100%
residual activity [23, 47]: 100%
residual activity [24, 47]: 91%
residual activity [25, 47]: 100%
residual activity [26, 47]: 66%
residual activity [27, 47]: 100%
inhibition [28]: 7.09%
residual activity [29, 47]: 39%
inhibition [30]: 6.15%
residual activity [31, 47]: 100%
residual activity [32, 47]: 74%
residual activity [33, 47]: 100%
residual activity [34, 47]: 100%
residual activity [35, 47]: 30%
residual activity [36, 47]: 92%
residual activity [37, 47]: 69%
residual activity [38, 47]: 90%
residual activity [39, 47]: 50%
residual activity [40, 47]: 86%
residual activity [41, 47]: 99%
residual activity [42, 47]: 94%
residual activity [43, 47]: 90%
residual activity [44, 47]: 100%
residual activity [45, 47]: 83%
